Measured values from publication PMC9579956 (RSC Medicinal Chemistry, 2022).
“And” between values parts separate entries of the source, which are not always exact repeats. Identical values can stand only once. Like-named read-outs stand apart in the source and are kept apart here.

Columns and labels:
[1] = target: T1, Mycobacterium thermoresistible (Mtr) LpqY (Mycolicibacterium thermoresistibile, UniProt G7CES0); format: binding; conditions: for Screen signal/noise ratio (MST S/N): compound 100 μM, LpqY 500 nM, 10% DMSO, duplicate; for Pathogen Box screen signal/noise ratio: single dose MST screen against LpqY
[2] = target: T1, Mycobacterium thermoresistible (Mtr) LpqY; format: binding; conditions: for Hit validation Binding score: MST re-evaluation of hits against LpqY; for Validation binding score (MST): quadruplicate, new batch of LpqY
[3] = target: T1, Mycobacterium thermoresistible (Mtr) LpqY; experiment: Affinity studies with microscale thermophoresis (MST); format: binding; conditions: for Binding to LpqY (qualitative): Kd could not be determined
[4] = Solubility in aqueous buffer (observation in MST affinity assay); format: physicochemical
Excerpt: The top five hits that were commercially available were selected for further characterisation and the binding affinities determined with LpqY (Fig. 4, Table S2 ^†).

T1 sequence (G7CES0 29-471): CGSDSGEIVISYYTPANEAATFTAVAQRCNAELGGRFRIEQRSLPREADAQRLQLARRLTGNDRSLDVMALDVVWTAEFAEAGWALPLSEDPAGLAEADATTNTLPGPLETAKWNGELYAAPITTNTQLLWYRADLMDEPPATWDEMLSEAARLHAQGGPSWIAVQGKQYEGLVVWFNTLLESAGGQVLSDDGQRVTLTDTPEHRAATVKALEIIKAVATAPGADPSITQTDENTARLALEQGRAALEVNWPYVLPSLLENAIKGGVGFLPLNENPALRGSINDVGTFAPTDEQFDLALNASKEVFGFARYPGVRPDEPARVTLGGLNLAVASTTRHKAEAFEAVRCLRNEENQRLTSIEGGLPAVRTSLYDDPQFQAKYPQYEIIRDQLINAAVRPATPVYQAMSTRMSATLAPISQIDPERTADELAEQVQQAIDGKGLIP

| Structure (SMILES) | Screen signal/noise ratio (MST S/N) [1] | Pathogen Box screen signal/noise ratio [1] | Hit validation Binding score [2] | Binding to LpqY (qualitative) ([3]; MST) | Solubility in aqueous buffer [4] | Validation binding score (MST) [2] | Kd [3] [µM] | fold increase of affinity (Kd) compared to trehalose ([3]; MST) [fold] | Validation binding score (MST) ([2]; listed as doxycycline) | fold decrease in affinity compared to trehalose ([3]; MST) [fold] |
| --- | --- | --- | --- | --- | --- | --- | --- | --- | --- | --- |
| Nc1cccnc1Nc1ccc(Cl)cc1 [MMV676524, 2-N-(4-chlorophenyl)pyridine-2,3-diamine] | 6.4 | 6.4 | 12.2 | Concentration dependent binding | poor solubility | – | – | – | – | – |
| COc1cc(NC(C)CCCN)c2ncccc2c1 (centres unmarked) [MMV000023, Primaquine, reference compound] | 10.0 | 10.0 | 21.6 | Concentration dependent binding | – | 21.6 | – | – | – | – |
| CCOC(=O)NC(=O)c1ccsc1NC(=O)c1nc2ccccc2s1 [MMV090930, TCA1, reference compound] | 29.5 | 29.5 | 91.5 | – | – | > 5 | 14.2 ± 0.8 | ~2.5 | – | – |
| C[C@H]1c2cccc(O)c2C(=O)C2=C(O)[C@]3(O)C(=O)C(C(N)=O)=C(O)[C@@H](N(C)C)[C@@H]3[C@@H](O)[C@@H]21 [MMV000011, Doxycycline, reference compound] | 5.8 | 5.8 | 6.5 | – | – | 6.5 | – | – | > 5 | – |
| CC(=O)Oc1ccccc1C(=O)Nc1ncc([N+](=O)[O-])s1 [MMV688991, Nitazoxanide, reference compound] | 8.3 | 8.3 | 20.0 | – | – | – | 85.4 | – | – | ~2 |
| O=C(NCCc1c[nH]c2ccccc12)c1cc2ccccc2oc1=O [MMV676539, N-[2-(1H-indol-3-yl)ethyl]-2-oxochromene-3-carboxamide] | 6.2 | 6.2 | 6.4 | – | – | 6.4 and > 5 | – | – | – | – |
| CNC(=O)c1nn(C)c2c1C(C)(C)Cc1cnc(Nc3ccc(N4CCN(C)CC4)cc3)nc1-2 [MMV676602, Milciclib, reference compound] | 9.5 | 9.5 | 13.6 | Concentration dependent binding | poor solubility | > 12 | – | – | – | – |
| CS(=O)(=O)c1ccccc1C(=O)N(Cc1ccccc1)c1ccccc1 [MMV688798, N-benzyl-2-methylsulfonyl-N-phenylbenzamide] | 5.2 | 5.2 | 1.3 | – | – | 1.3 | – | – | – | – |
| O=C(Nc1cccc(Cl)c1)c1cnc(N2CCN(c3ccncc3)CC2)c(Cl)c1 [MMV024406, 5-chloro-N-(3-chlorophenyl)-6-(4-pyridin-4-ylpiperazin-1-yl)pyridine-3-carboxamide] | 5.2 | 5.2 | 2.3 | – | – | 2.3 | – | – | – | – |
